Assays:
[1] = molar heat capacity at constant pressure; conditions: 101.33 kPa, Crystal, Small sample (50 mg) DSC
[2] = molar heat capacity at constant pressure; an = ratio of the nth substance listed; conditions: 100 kPa, Crystal of intercomponent compound 1, Small sample (50 mg) DSC, a2 = 25

[Bi+3].[Bi+3].[O-2].[O-2].[O-2] [bismuth oxide]
[1]
Conditions | molar heat capacity at constant pressure [J/K/mol]
333 K | 115.4
353 K | 117
403 K | 120.1
453 K | 122.4
503 K | 124.6
553 K | 126.5
603 K | 128
653 K | 129.7
703 K | 131.4
753 K | 132.7
778 K | 133.2
803 K | 133.3
813 K | 133.5

[Fe+3].[Fe+3].[O-2].[O-2].[O-2] [ferric oxide] + [Bi+3].[Bi+3].[O-2].[O-2].[O-2]
[2]
Conditions | molar heat capacity at constant pressure [J/K/mol]
308 K | 1355.9
353 K | 1430.1
403 K | 1482.3
453 K | 1520.3
503 K | 1543.9
553 K | 1563.9
603 K | 1587.1
653 K | 1610.4
703 K | 1628.1
753 K | 1644.7
803 K | 1658.4
818 K | 1662.7
